Measured values: US11109593B2, “Isoxazolin-5-one derivative and herbicide containing same as active ingredient” (HOKKO CHEMICAL INDUSTRY CO., LTD., priority 2017, dated 2021)

Experiments:
Format in all cases: in vivo
[1] = system: Echinochloa crus-galli; experiment: Test Example 2: herbicidal effect test by treatment during growing period in paddy rice cultivation (seven days after seeding); conditions: 120 g/10a active ingredient, assessed 14 days after treatment, dry weight vs untreated area
Procedure, shortened: (§1)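 Post-emergence paddy water application: compounds were formulated as emulsions, diluted and dropped into flooded pots seven days after sowing at a rate equivalent to 120 g per 10 ares. Efficacy was taken as dry-weight reduction relative to untreated controls after 14 days.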

[2] = system: broad leaf weeds (Lindernia pyxidaria and Monochoria vaginalis); experiment: as above; conditions: 120 g/10a active ingredient, assessed 14 days after treatment, dry weight vs untreated area; for pest or weed control at 1200 g/ha: 336 h
Procedure, shortened: as §1

[3] = system: Scirpus juncoides; experiment: as above; conditions: 120 g/10a active ingredient, assessed 14 days after treatment, dry weight vs untreated area
Procedure, shortened: as §1

[4] = system: Echinochloa crus-galli; experiment: Test Example 1: herbicidal effect test by treatment of rice paddy soil (immediately after seeding)
Procedure, shortened: (§2)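 Flooded paddy pot test in a glass greenhouse: emulsion diluted in water, dropped at 120 g a.i. per 10 ares just after sowing, water depth kept about 3 cm. Dry-weight reduction relative to untreated plants is scored at 14 days.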

[5] = system: broad leaf weeds (Lindernia pyxidaria and Monochoria vaginalis); experiment: as above
Procedure, shortened: as §2

[6] = system: Scirpus juncoides; experiment: as above
Procedure, shortened: as §2

[7] = system: Echinochloa crus-galli; experiment: Test Example 4: herbicidal effect test by treatment of leave and stem in dry field farming (seven days after seeding); conditions: 120 g/10a active ingredient, emulsion sprayed seven days after seeding, evaluated 14 days after treatment
Procedure, shortened: (§3)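 Duplicate pots were scored 14 days post-spray by dry weight, herbicidal rate = {1 − treated/untreated average dry weight} × 100. The water-diluted emulsion, equivalent to 120 g active ingredient per 10 ares in 100 L, was applied seven days after sowing 20 seeds each into the upper 1 cm of alluvial soil.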

[8] = system: Chenopodium album; experiment: as above; conditions: 120 g/10a active ingredient, emulsion sprayed seven days after seeding, evaluated 14 days after treatment
Procedure, shortened: as §3

[9] = system: southern crabgrass; experiment: as above; conditions: 120 g/10a active ingredient, emulsion sprayed seven days after seeding, evaluated 14 days after treatment
Procedure, shortened: as §3

[10] = system: Amaranthus viridis; experiment: as above; conditions: 120 g/10a active ingredient, emulsion sprayed seven days after seeding, evaluated 14 days after treatment
Procedure, shortened: as §3

[11] = system: Echinochloa crus-galli; experiment: Test Example 3: herbicidal effect test by treatment of dry field farming soil (one day after seeding); conditions: 120 g/10a active ingredient, evaluated 14 days after treatment
Procedure, shortened: (§4)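 Dry-field alluvium pots; weed seeds incorporated in top 1 cm; soil spray of diluted emulsion 1 d after seeding, 120 g a.i./10 a in 100 L/10 a. Readout: % reduction of dry weight vs untreated, day 14, duplicates.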

[12] = system: Chenopodium album; experiment: as above; conditions: 120 g/10a active ingredient, evaluated 14 days after treatment
Procedure, shortened: as §4

[13] = system: southern crabgrass; experiment: as above; conditions: 120 g/10a active ingredient, evaluated 14 days after treatment
Procedure, shortened: as §4

[14] = system: Amaranthus viridis; experiment: as above; conditions: 120 g/10a active ingredient, evaluated 14 days after treatment
Procedure, shortened: as §4

[15] = 120 g/10a active ingredient, dry weight vs untreated area, 14 days after treatment
[16] = Lindernia pyxidaria, 120 g/10a active ingredient, dry weight vs untreated area, 14 days after treatment
[17] = Monochoria vaginalis, 120 g/10a active ingredient, dry weight vs untreated area, 14 days after treatment
[18] = 120 g/10a active ingredient, 14 days after treatment, dry weight vs untreated area

Row | Compound | Herbicidal rate (%) Echinochloa crus-galli [1] [%] | Herbicidal rate (%) Lindernia pyxidaria ([2]; Lindernia pyxidaria) [%] | Herbicidal rate (%) Monochoria vaginalis ([2]; Monochoria vaginalis) [%] | Herbicidal rate (%) Scirpus juncoides [3] [%] | Herbicidal rate (%) Echinochloa crus-galli [4, 15] [%] | Herbicidal rate (%) Lindernia pyxidaria [5, 16] [%] | Herbicidal rate (%) Monochoria vaginalis [5, 17] [%] | Herbicidal rate (%) Scirpus juncoides [6, 15] [%] | herbicidal effect (herbicidal rate), Echinochloa crus-galli [7] [%] | herbicidal effect (herbicidal rate), Chenopodium album [8] [%] | herbicidal effect (herbicidal rate), southern crabgrass [9] [%] | herbicidal effect (herbicidal rate), Amaranthus viridis [10] [%] | herbicidal rate, Echinochloa crus-galli [11] [%] | herbicidal rate, Chenopodium album [12] [%] | herbicidal rate, southern crabgrass [13] [%] | herbicidal rate, Amaranthus viridis [14] [%] | further results
1 | CCNC(=O)N(c1ccccc1Cc1c(C)n(C(C)c2ccccc2)oc1=O)S(=O)(=O)C(F)(F)F (stereo not shown) [Compound 1-874] | 90 | 90 | 90 | 90 | 90 | 90 | 90 | 90 | 90 | 40 | 90 | 40 | 90 | 90 | 90 | 90 | –
2 | C=CCOC(=O)N(c1ccccc1Cc1c(C)n(C(C)c2ccccc2)oc1=O)S(=O)(=O)C(F)(F)F (stereo not shown) [Compound 1-710] | 90 | 90 | 90 | 90 | 90 | 90 | 90 | 90 | 90 | 40 | 90 | 40 | 90 | 90 | 90 | 90 | –
3 | CCOC(=O)N(c1ccccc1Cc1c(C)n(CC(C)(C)C)oc1=O)S(=O)(=O)C(F)(F)F [Compound 1-609] | 90 | 90 | 90 | 90 | 90 | 90 | 90 | 90 | 90 | 40 | 90 | 40 | 90 | 90 | 90 | 90 | –
4 | CCC(C)n1oc(=O)c(Cc2ccccc2N(C(=O)COC)S(=O)(=O)C(F)(F)F)c1C (stereo not shown) [Compound 1-444] | 90 | 90 | 90 | 90 | 90 | 90 | 90 | 90 | 90 | 40 | 90 | 40 | 90 | 90 | 90 | 90 | –
5 | Cc1c(Cc2ccccc2N(S(=O)(=O)C(F)(F)F)S(=O)(=O)C(F)(F)F)c(=O)on1C1CCCc2ccccc21 (stereo not shown) [Compound 1-1050] | 90 | 100 | 90 | 90 | – | – | – | – | 50 | 50 | 40 | 40 | 100 | 90 | 90 | 90 | Herbicidal rate (%) Echinochloa crus-galli [4, 18]: 100%; Herbicidal rate (%) Lindernia pyxidaria ([5]; Lindernia pyxidaria, 120 g/10a active ingredient, 14 days after treatment, dry weight vs untreated area): 100%; Herbicidal rate (%) Monochoria vaginalis ([5]; Monochoria vaginalis, 120 g/10a active ingredient, 14 days after treatment, dry weight vs untreated area): 100%; Herbicidal rate (%) Scirpus juncoides [6, 18]: 90%
6 | Cc1c(Cc2ccccc2N(S(=O)(=O)C(F)(F)F)S(=O)(=O)C(F)(F)F)c(=O)on1C(C)(C)C [Compound 1-963, N-[2-[(2-tert-butyl-3-methyl-5-oxo-isoxazol-4-yl)methyl]phenyl]-1,1,1-trifluoro-N-(trifluoromethylsulfonyl)methanesulfonamide] | – | – | – | – | – | – | – | – | – | – | – | – | – | – | – | – | pest or weed control at 1200 g/ha ([1]; Echinochloa crus-galli, 336 h, read-out: herbicidal rate (%) Echinochloa crus-galli): 90%; pest or weed control at 1200 g/ha ([2]; Lindernia pyxidaria, read-out: herbicidal rate (%) Lindernia pyxidaria): 90%; pest or weed control at 1200 g/ha ([2]; Monochoria vaginalis, read-out: herbicidal rate (%) Monochoria vaginalis): 90%; pest or weed control at 1200 g/ha ([3]; Schoenoplectiella juncoides, 336 h, read-out: herbicidal rate (%) Scirpus juncoides): 90%; pest or weed control at 1200 g/ha ([4]; in Echinochloa crus-galli, 336 h, 120 g/10a active ingredient, dry weight vs untreated area, 14 days after treatment, read-out: Herbicidal rate (%) Echinochloa crus-galli): 90%; pest or weed control at 1200 g/ha ([5]; 336 h, Monochoria vaginalis, 120 g/10a active ingredient, dry weight vs untreated area, 14 days after treatment, read-out: Herbicidal rate (%) Monochoria vaginalis): 90%; pest or weed control at 1200 g/ha ([5]; in Lindernia, 336 h, Lindernia pyxidaria, 120 g/10a active ingredient, dry weight vs untreated area, 14 days after treatment, read-out: Herbicidal rate (%) Lindernia pyxidaria): 90%; pest or weed control at 1200 g/ha ([6]; in Schoenoplectiella juncoides, 336 h, 120 g/10a active ingredient, dry weight vs untreated area, 14 days after treatment, read-out: Herbicidal rate (%) Scirpus juncoides): 90%; pest or weed control at 1200 g/ha ([7]; Echinochloa crus-galli, 336 h, read-out: herbicidal effect (herbicidal rate), Echinochloa crus-galli): 90%; pest or weed control at 1200 g/ha ([8]; Chenopodium album, 336 h, read-out: herbicidal effect (herbicidal rate), Chenopodium album): 40%; pest or weed control at 1200 g/ha ([9]; Digitaria ciliaris, 336 h, read-out: herbicidal effect (herbicidal rate), southern crabgrass): 90%; pest or weed control at 1200 g/ha ([10]; Amaranthus viridis, 336 h, read-out: herbicidal effect (herbicidal rate), Amaranthus viridis): 40%; pest or weed control at 1200 g/ha ([11]; Echinochloa crus-galli, 336 h, read-out: herbicidal rate, Echinochloa crus-galli): 90%; pest or weed control at 1200 g/ha ([12]; Chenopodium album, 336 h, read-out: herbicidal rate, Chenopodium album): 90%; pest or weed control at 1200 g/ha ([13]; Digitaria ciliaris, 336 h, read-out: herbicidal rate, southern crabgrass): 90%; pest or weed control at 1200 g/ha ([14]; Amaranthus viridis, 336 h, read-out: herbicidal rate, Amaranthus viridis): 90%
7 | COCC(C)n1oc(=O)c(Cc2ccccc2N(C(=O)OC)S(=O)(=O)C(F)(F)F)c1C (stereo not shown) [Compound 1-587] | 90 | 90 | 90 | 90 | 90 | 90 | 90 | 90 | 90 | 40 | 90 | 40 | 90 | 90 | 90 | 90 | –
